# Measurements reported in patent US9771560B2, “High-throughput image-based chemical screening in zebrafish blastomere cell culture” (CHILDREN'S MEDICAL CENTER CORPORATION, priority 2012, dated 2017).
# Entries after “also recorded” stand apart in the source; their conditions may differ. Counter-ions that a name gives are not always drawn.
# Assays:
# [1] = test system: zebrafish embryos; test: Whole-mount in situ hybridization with myoD riboprobe in chemical-treated zebrafish embryos; type: in vivo; design: key to myoD expression: Level 1: decreased myoD staining at different levels, which are indicated in FIG. 9A; Level 2: decreased myoD staining at different levels, which are indicated in FIG. 9A; Level 3: decreased myoD staining at different levels, which are indicated in FIG. 9A; Level 4: decreased myoD staining at different levels, which are indicated in FIG. 9A; conditions: for myoD expression: embryos treated at the sphere stage, assayed at the 6-somite stage, CHB library chemicals diluted 300-fold, compared with DMSO; for perturbation of muscle development in vivo (myoD riboprobe): treated at the sphere stage, 6-somite stage, diluted 300-fold
# Procedure: FIGS. 9A-9C show the chemical genetics screens to identify modifiers of skeletal muscle development (related to FIG. 2) FIG. 9A, Embryos were treated with hits at the sphere stage. Once the control embryos reached the 6-somite stage, they were collected for whole-mount in situ hybridization with the myoD riboprobe. […] Flat mounted embryos stained with the myoD riboprobe at the 6-somite stage are shown with anterior to the left. Embryos were treated with (±)-6-Chloro-PB hydrobromide, LY-294002, 1-ACYL-PAF, or ATRA. All chemicals were from the CHB library and were diluted 300-fold. The level of myoD reduction was determined by comparing the intensity of myoD expression in these embryos with that in control embryos treated with DMSO. FIG. 9B, myf5-GFP; mylz2-mCherry embryos were collected at the oblong stage and disassociated. The resulting blastomere cells were aliquoted into a 96-well plate with pre-added chemicals. The culture medium contained 10 ng/ml bFGF to promote muscle development. Cells were treated with 50 μM tyrphostin AG 879, 50 μM tyrphostin AG 808, 50 μM tyrphostin AG 555, 50 μM PD 98059, 10 μM U0126, 10 μM LY-294002, 10 μM wortmannin, or 20 μM rapamycin. Cells were imaged after 2 days by the Celigo cytometer for GFP, mCherry, and bright-field signals. FIG. 9C, 1-cell-stage myf5-GFP; mylz2-mCherry embryos were injected with 250 pg fgf8-MO and 250 pg fgf24-MO and rescued by adding […] at the dome stage.
# Whole mount in situ hybridizations were performed as previously described (Belting et al., 2001).
# [2] = test system: zebrafish blastomere cells; test: Sensitized chemical screen in zebrafish blastomere cell culture in the absence of bFGF; type: cell-based
# Description: (§1) FIGS. 2A-2C show the chemical genetic screens to identify modifiers of skeletal muscle development. FIG. 2A is a schematic of a high-throughput image-based chemical screening assay. Approximately 800 myf5-GFP; mylz2-mCherry double transgenic embryos were collected and disassociated at the oblong stage. The resulting blastomere cells were aliquoted into four 384-well plates with pre-added chemicals. We performed duplicates for each chemical to mitigate false positives. After 2 days, the 384-well plates were imaged using a Celigo cytometer. For each well, an image for each signal channel was captured. GFP and mCherry signals were determined by the Celigo cytometer's built-in software and confirmed by eye. […] Most of the hits could be grouped into three categories. […] The phenotype is presumptively due to inhibition of differentiation of muscle progenitors into mature muscle. […] This phenotype is presumptively due to the blocking of muscle progenitor commitment. […] Scale bars represent 250 μM. […] Scale bars represent 250 μM.
# (§2) Four 384-well plates were coated with 0.1% gelatin. Chemicals from the CHB library were diluted 150 times with zESC medium containing 1 ng/ml bFGF and were aliquoted 30 μl per well. Males and females of the myf5-GFP; mylz2-mCherry transgenic line were set up overnight and kept separated until morning when they were mixed for mate. Approximately 800 oblong-stage embryos were washed three times with E3 embryo water and were treated with pronase to remove chorions. Dechorionated embryos were washed with E3 embryo water three times and collected into a 50 ml falcon tube with 25 ml zESC medium containing 1 ng/ml bFGF. Embryos were disassociated by shaking approximately 20 times and were filtered through a 70 μm nylon mesh filter. The resulting single cells were diluted to 60 ml with zESC medium containing 1 ng/ml bFGF and aliquoted 30 μl per well into the four 384-well plates with pre-added chemicals. The cells were cultured in a 28-degree incubator without CO2. Cells were imaged by a Celigo cytometer (Cyntellect) under channels of GFP, mCherry, and transmitted light. The images were analyzed by the built-in software and confirmed eye.
# The strong muscle promoting effect of bFGF made it difficult to identify enhancers of skeletal muscle development in our original system. Only one out of 2,400 chemicals was identified to promote muscle development. To sensitize the system for identifying enhancers of skeletal muscle development, we repeated the screen in the absence of bFGF. […] Among the six hits were three GSKβ inhibitor (kenpaullone, SB415286, and SB216763), two calpain inhibitors (E-64-D and MDL28170) and one cAMP activator forskolin.
# [3] = test system: human iPSCs (00409, 05400, and BJ)
# Procedure: Cells were differentiated by generating EBs in suspension culture 7 days and then transferred to matrigel-coated plates for additional 29 days. During the suspension culture the cells received the differentiation medium STEMDiff Apel medium ([sequence] technologies) supplied with 10 ng/ml bFGF (Invitrogen), 0.5 μM BIO (Santa Cruz Biotechnologies) and 20 μM forskolin (Santa Cruz Biotechnologies). Two-three days after plating EBs, the medium was switched to DMEM complemented with 2% horse serum for the remaining differentiation.
# Embryoid bodies (EBs) from BJ, 00409 or 05400 iPSCs were exposed for 7 days to a serum-free differentiation medium containing bFGF (10 ng/ml), BIO (0.5 μM) and forskolin (20 μM) (medium added at day 1, 3 and 5). […] After 7 days, we measured the expression of a panel of markers specific for ectoderm, endoderm or mesoderm to quantify differentiation outcomes.
# [4] = test system: zebrafish blastomere cells; test: Culture of disassociated myf5-GFP; mylz2-mCherry blastomere cells in zESC medium (validation and pathway inhibitor tests); type: cell-based
# Procedure: FIGS. 1A-1E show the chemical genetic screen to identify modifiers of skeletal muscle development. […] The yolk of the double transgenic embryo is mCherry positive, presumptively due to the maternal deposit of mCherry protein. mylz2-mCherry expression is not observed until 32 hpf. Its expression is first detected in anterior somites and then progressively spreads to posterior somites. […] Images were taken 48 hours after plating. Scale bars represent 250 μM. […] Blastomere cells from myf5-GFP; mylz2-mCherry embryos were cultured with or without bFGF and harvested at 24 hours. Results of bFGF treated cells are normalized to the expression of untreated cells. Error bars represent standard deviation (SD) from the triplicate quantitative RT-PCR reaction. All expressions are normalized to β-actin. […] Blastomere cells from myf5-GFP; mylz2-mCherry embryos were cultured with bFGF and harvested at 24 hours. Different populations were isolated by FACS. Results are normalized to the expression of cells of the double negative population. Error bars represent standard deviation (SD) from the triplicate quantitative RT-PCR reaction. All expressions are normalized to β-actin. […] 0.1% DMSO or 100 nM ATRA was added immediately. Images were taken 48 hours after plating. Scale bars represent 250 μM.
# FIGS. 9A-9C show the chemical genetics screens to identify modifiers of skeletal muscle development (related to FIG. 2) FIG. 9A, Embryos were treated with hits at the sphere stage. Once the control embryos reached the 6-somite stage, they were collected for whole-mount in situ hybridization with the myoD riboprobe. […] Flat mounted embryos stained with the myoD riboprobe at the 6-somite stage are shown with anterior to the left. Embryos were treated with (±)-6-Chloro-PB hydrobromide, LY-294002, 1-ACYL-PAF, or ATRA. All chemicals were from the CHB library and were diluted 300-fold. The level of myoD reduction was determined by comparing the intensity of myoD expression in these embryos with that in control embryos treated with DMSO. […]
# [5] = test system: zebrafish blastomere cells; test: High-throughput image-based chemical screen in myf5-GFP; mylz2-mCherry zebrafish blastomere cell culture with bFGF; conditions: medium supplemented with bFGF, 384-well, Celigo cytometer
# Description: as §1
# Disassociated blastomere cells were grown in zESC medium, which is composed of 70% LDF medium and 30% RTS34st-conditioned medium. The LDF medium contains 50% Leibowitz's L-15 (Invitrogen), 35% DMEM (Invitrogen), and 15% Ham's F-12 (Invitrogen), supplemented with 0.18 g/l sodium bicarbonate, 15 mM HEPES (Invitrogen), 1% L-Glutamine (Invitrogen), 10 μg/ml ciprofloxacin (Sigma-Aldrich), 100 μg/ml piperacillin (Sigma-Aldrich), 10 μg/ml amphotericin B (Sigma-Aldrich), 10 nM sodium selenite (Sigma-Aldrich), 1% N2 (Invitrogen), and 2% B27 (Invitrogen). The RTS34st conditioned medium was prepared by incubating fresh medium (Leibowitz's L-15 plus 15% FBS) on a confluent culture of RTS34st cells for 3 days.
# as §2
# To enable a higher throughput analysis of candidate modifiers of skeletal myogenesis, the embryo culture system was adapted to a semi-automated chemical screening platform. myf5-GFP; mylz2-mCherry embryos were collected from double transgenic parents and disassociated at the oblong stage. […] After one day, the cells were automatically imaged and analyzed using a Celigo cytometer for GFP, mCherry, and bright-field signals, and image analysis was confirmed by visual inspection (FIG. 2A).
molecule,measurement,setting,value
Cl.Oc1cc2c(c(Cl)c1O)CCNCC2c1ccccc1 (racemic) [(±)-6-Chloro-PB hydrochloride],myoD expression,[1],Level 1
same,perturbation of muscle development in vivo (myoD riboprobe),[1],verified to perturb muscle development in vivo
Cn1cc(C2=C(c3ccc(Cl)cc3Cl)C(=O)NC2=O)c2ccccc21 [SB216763],GFP and mCherry signals,[2],increase the GFP and mCherry signals
C[C@@H](NC(=O)/C(C#N)=C/c1ccc(O)c(O)c1)c1ccccc1 [Tyrphostin AG 527],myoD expression,[1],No Change; also recorded: Level 1
NC(=O)c1ccc(-c2nc(-c3ccccn3)c(-c3ccc4c(c3)OCO4)[nH]2)cc1 [SB-431542],myoD expression,[1],No change
"O=C1Nc2cc(Br)ccc2/C1=C1/Nc2ccccc2/C1=N\O [BIO, 6-Bromoindirubin-3′-oxime]",toxicity compared with other GSK3β antagonists,[3],lower toxicity
basic fibroblast growth factor [bFGF],GFP and mCherry expression of cultured blastomere cells,[4]; bFGF added to zESC medium,majority of cells became GFP and mCherry double positive
same,"expression of other myogenic genes (myoD, mrf4, myog), quantitative RT-PCR","[4]; cultured with bFGF, harvested at 24 hours",highly expressed
Cl.NCCNC(=O)c1ncsc1-c1cccc(F)c1 [Ro 41-1049 hydrochloride],change of myf5-GFP and mylz2-mCherry signals (hit category),[5],decreased amount of both fluorescent colors
same,myoD expression,[1],Level 4
"CC1=C(/C=C/C(C)=C/C=C/C(C)=C/C(=O)O)C(C)(C)CCC1 [ATRA, all-trans retinoic acid]",myoD expression,[1],Level 4
same,perturbation of muscle development in vivo (myoD riboprobe),[1],verified to perturb muscle development in vivo
same,skeletal muscle development in vitro,"[4]; zESC medium with bFGF, 100 nM ATRA, images 48 hours after plating",blocked skeletal muscle development; also recorded: blocks muscle development in vitro
"O=C1Cc2c([nH]c3ccc(Br)cc23)-c2ccccc2N1 [kenpaullone, 9-bromopaullone]",GFP and mCherry signals,[2],increase the GFP and mCherry signals
"O=c1cc(N2CCOCC2)oc2c(-c3ccccc3)cccc12 [LY-294,002 hydrochloride]",myoD expression,[1],Level 2
"CCCC[N+]1(C)[C@@H]2C[C@@H](OC(=O)[C@H](CO)c3ccccc3)C[C@H]1[C@@H]1O[C@@H]12.[Br-] (single isomer, unassigned; (-)) [(-)-Scopolamine, n-Butyl-, bromide]",myoD expression,[1],Level 1
N#C/C(=C\c1c[nH]c2ccccc12)C(=O)c1ccc(O)c(O)c1 [Tyrphosfin AG 808],myoD expression,[1],Level 1
O=C1NC(=O)C(c2ccccc2[N+](=O)[O-])=C1Nc1ccc(O)c(Cl)c1 [SB415286],change of myf5-GFP and mylz2-mCherry signals (hit category),[5],increased expression of both markers
same,GFP and mCherry signals,[2],increase the GFP and mCherry signals
C=C1C(=O)O[C@@H]2C[C@@H](C)[C@@H]3C=CC(=O)[C@@]3(C)[C@@H](O)[C@H]12 [Helenalin],myoD expression,[1],Toxic
MDL28170,GFP and mCherry signals,[2],increase the GFP and mCherry signals
Clc1cnc(Oc2ccc(Oc3ncc(Cl)cc3Cl)cc2)c(Cl)c1 [TCPOBOP],change of myf5-GFP and mylz2-mCherry signals (hit category),[5],only myf5-GFP expression
CCOC(=O)[C@H]1O[C@@H]1C(=O)N[C@@H](CC(C)C)C(=O)NCCC(C)C [E-64-D],GFP and mCherry signals,[2],increase the GFP and mCherry signals
COCC(=O)O[C@]1(CCN(C)CCCc2nc3ccccc3[nH]2)CCc2cc(F)ccc2[C@@H]1C(C)C.Cl.Cl [Miberfradil dihydrochloride],myoD expression,[1],Level 2
CO[C@H]1C[C@@H]2CC[C@@H](C)[C@@](O)(O2)C(=O)C(=O)N2CCCC[C@H]2C(=O)O[C@H]([C@H](C)C[C@@H]2CC[C@@H](O)[C@H](OC)C2)CC(=O)[C@H](C)/C=C(\C)[C@@H](O)[C@@H](OC)C(=O)[C@H](C)C[C@H](C)/C=C/C=C/C=C/1C [Rapamycin],myoD expression,[1],Level 2
Cl.Cl.Cl.NCCCCNCCCN [Spermidine trihydrochloride],myoD expression,[1],Level 1
CCCNC(=O)[C@H]1O[C@@H]1C(=O)N[C@H](C(=O)N1CCC[C@H]1C(=O)OC)[C@@H](C)CC [CA-074-Me],change of myf5-GFP and mylz2-mCherry signals (hit category),[5],only myf5-GFP expression
CN(Cc1cnc2nc(N)nc(N)c2n1)c1ccc(C(=O)N[C@@H](CCC(=O)O)C(=O)O)cc1 [Methotrexate],myoD expression,[1],No change
CC(C)(C)c1cc(/C=C(\C#N)C(N)=S)cc(C(C)(C)C)c1O [Tyrphostin AG 879],change of myf5-GFP and mylz2-mCherry signals (hit category),[5],decreased amount of both fluorescent colors
same,myoD expression,[1],Toxic
